Laboratory results: ChEMBL document CHEMBL4725265, “Short chain α-pyrones capable of potentiating penicillin G against Pseudomonas aeruginosa” (Bioorg Med Chem Lett, 2020)
Converted amounts (≈) assume the structure as drawn. Blank lines part the entries; values can stand above or below the compound they belong to. The source made the active and inactive calls. The rule behind the calls is not given here.

How the values were obtained:
[1] = tested on: Staphylococcus aureus; experiment: Potentiation of penicillin G-induced antibacterial activity against Staphylococcus aureus assessed as fold reduction in penicillin G MIC at 50 uM after 12 to 24 hrs relative to penicillin G MIC alone; type: functional; conditions: time hrs 12-24
[2] = tested on: Escherichia coli; experiment: Antibacterial activity against Escherichia coli; type: functional, organism-based
[3] = tested on: Escherichia coli; experiment: Potentiation of penicillin G-induced antibacterial activity against Escherichia coli assessed as penicillin G MIC at 50 uM after 12 to 24 hrs (reference value: 64 microg/ml); type: functional; conditions: time hrs 12-24
[4] = tested on: Staphylococcus aureus; experiment: Potentiation of vancomycin-induced antibacterial activity against Staphylococcus aureus assessed as fold reduction in vancomycin MIC at 50 uM after 12 to 24 hrs relative to vancomycin MIC alone; type: functional; conditions: time hrs 12-24
[5] = tested on: Staphylococcus aureus; experiment: Potentiation of erythromycin-induced antibacterial activity against Staphylococcus aureus assessed as fold reduction in erythromycin MIC at 50 uM after 12 to 24 hrs relative to erythromycin MIC alone; type: functional; conditions: time hrs 12-24
[6] = tested on: Escherichia coli; experiment: Potentiation of penicillin G-induced antibacterial activity against Escherichia coli assessed as fold reduction in penicillin G MIC at 50 uM after 12 to 24 hrs relative to penicillin G MIC alone; type: functional; conditions: time hrs 12-24
[7] = tested on: Pseudomonas aeruginosa; experiment: Potentiation of penicillin G-induced antibacterial activity against Pseudomonas aeruginosa assessed as penicillin G MIC at 50 uM after 12 to 24 hrs (Rvb > 128 microg/ml); type: functional; conditions: time hrs 12-24
[8] = tested on: Pseudomonas aeruginosa; experiment: Antibacterial activity against Pseudomonas aeruginosa; type: functional, organism-based
[9] = tested on: Bacillus subtilis; experiment: Potentiation of vancomycin-induced antibacterial activity against Bacillus subtilis assessed as fold reduction in vancomycin MIC at 50 uM after 12 to 24 hrs relative to vancomycin MIC alone; type: functional; conditions: time hrs 12-24
[10] = tested on: Staphylococcus aureus; experiment: Antibacterial activity against Staphylococcus aureus; type: functional, organism-based
[11] = tested on: Staphylococcus aureus; experiment: Potentiation of amoxicillin-induced antibacterial activity against Staphylococcus aureus assessed as fold reduction in amoxicillin MIC at 50 uM after 12 to 24 hrs relative to amoxicillin MIC alone; type: functional; conditions: time hrs 12-24
[12] = tested on: Escherichia coli; experiment: Potentiation of erythromycin-induced antibacterial activity against Escherichia coli assessed as erythromycin MIC at 50 uM after 12 to 24 hrs (reference value: 1 microg/ml); type: functional; conditions: time hrs 12-24
[13] = tested on: Bacillus subtilis; experiment: Potentiation of erythromycin-induced antibacterial activity against Bacillus subtilis assessed as erythromycin MIC at 50 uM after 12 to 24 hrs (reference value: 0.5 microg/ml); type: functional; conditions: time hrs 12-24
[14] = tested on: Staphylococcus aureus; experiment: Potentiation of penicillin G-induced antibacterial activity against Staphylococcus aureus assessed as penicillin G MIC at 50 uM after 12 to 24 hrs (reference value: […] microg/ml); type: functional; conditions: time hrs 12-24
[15] = tested on: Staphylococcus aureus; experiment: Potentiation of erythromycin-induced antibacterial activity against Staphylococcus aureus assessed as erythromycin MIC at 50 uM after 12 to 24 hrs (reference value: 0.5 microg/ml); type: functional; conditions: time hrs 12-24
[16] = tested on: Bacillus subtilis; experiment: Potentiation of penicillin G-induced antibacterial activity against Bacillus subtilis assessed as fold reduction in penicillin G MIC at 50 uM after 12 to 24 hrs relative to penicillin G MIC alone; type: functional; conditions: time hrs 12-24
[17] = tested on: Pseudomonas aeruginosa; experiment: Potentiation of vancomycin-induced antibacterial activity against Pseudomonas aeruginosa assessed as vancomycin MIC at 50 uM after 12 to 24 hrs (reference value: 1 microg/ml); type: functional; conditions: time hrs 12-24
[18] = tested on: Bacillus subtilis; experiment: Potentiation of vancomycin-induced antibacterial activity against Bacillus subtilis assessed as vancomycin MIC at 50 uM after 12 to 24 hrs (reference value: 64 microg/ml); type: functional; conditions: time hrs 12-24
[19] = tested on: Bacillus subtilis; experiment: Potentiation of amoxicillin-induced antibacterial activity against Bacillus subtilis assessed as amoxicillin MIC at 50 uM after 12 to 24 hrs (reference value: 64 microg/ml); type: functional; conditions: time hrs 12-24
[20] = tested on: Escherichia coli; experiment: Potentiation of amoxicillin-induced antibacterial activity against Escherichia coli assessed as amoxicillin MIC at 50 uM after 12 to 24 hrs (reference value: 4 microg/ml); type: functional; conditions: time hrs 12-24
[21] = tested on: Pseudomonas aeruginosa; experiment: Potentiation of penicillin G-induced antibacterial activity against Pseudomonas aeruginosa assessed as fold reduction in penicillin G MIC at 50 uM after 12 to 24 hrs relative to penicillin G MIC alone; type: functional; conditions: time hrs 12-24
[22] = tested on: Bacillus subtilis; experiment: Potentiation of amoxicillin-induced antibacterial activity against Bacillus subtilis assessed as fold reduction in amoxicillin MIC at 50 uM after 12 to 24 hrs relative to amoxicillin MIC alone; type: functional; conditions: time hrs 12-24
[23] = tested on: Bacillus subtilis; experiment: Potentiation of penicillin G-induced antibacterial activity against Bacillus subtilis assessed as penicillin G MIC at 50 uM after 12 to 24 hrs (reference value: 64 microg/ml); type: functional; conditions: time hrs 12-24
[24] = tested on: Escherichia coli; experiment: Potentiation of vancomycin-induced antibacterial activity against Escherichia coli assessed as vancomycin MIC at 50 uM after 12 to 24 hrs (reference value: 64 microg/ml); type: functional; conditions: time hrs 12-24
[25] = tested on: Pseudomonas aeruginosa; experiment: Potentiation of erythromycin-induced antibacterial activity against Pseudomonas aeruginosa assessed as fold reduction in erythromycin MIC at 50 uM after 12 to 24 hrs relative to erythromycin MIC alone; type: functional; conditions: time hrs 12-24
[26] = tested on: Bacillus subtilis; experiment: Antibacterial activity against Bacillus subtilis; type: functional, organism-based
[27] = tested on: Escherichia coli; experiment: Potentiation of erythromycin-induced antibacterial activity against Escherichia coli assessed as fold reduction in erythromycin MIC at 50 uM after 12 to 24 hrs relative to erythromycin MIC alone; type: functional; conditions: time hrs 12-24
[28] = tested on: Escherichia coli; experiment: Potentiation of amoxicillin-induced antibacterial activity against Escherichia coli assessed as fold reduction in amoxicillin MIC at 50 uM after 12 to 24 hrs relative to amoxicillin MIC alone; type: functional; conditions: time hrs 12-24
[29] = tested on: Pseudomonas aeruginosa; experiment: Potentiation of erythromycin-induced antibacterial activity against Pseudomonas aeruginosa assessed as erythromycin MIC at 50 uM after 12 to 24 hrs (reference value: 0.5 microg/ml); type: functional; conditions: time hrs 12-24
[30] = tested on: Staphylococcus aureus; experiment: Potentiation of amoxicillin-induced antibacterial activity against Staphylococcus aureus assessed as amoxicillin MIC at 50 uM after 12 to 24 hrs (reference value: 128 microg/ml); type: functional; conditions: time hrs 12-24
[31] = tested on: Bacillus subtilis; experiment: Potentiation of erythromycin-induced antibacterial activity against Bacillus subtilis assessed as fold reduction in erythromycin MIC at 50 uM after 12 to 24 hrs relative to erythromycin MIC alone; type: functional; conditions: time hrs 12-24
[32] = tested on: Pseudomonas aeruginosa; experiment: Antibiofilm activity against Pseudomonas aeruginosa by crystal violet staining based assay; type: functional, organism-based
[33] = tested on: Staphylococcus aureus; experiment: Potentiation of vancomycin-induced antibacterial activity against Staphylococcus aureus assessed as vancomycin MIC at 50 uM after 12 to 24 hrs (reference value: 0.5 microg/ml); type: functional; conditions: time hrs 12-24
[34] = tested on: Pseudomonas aeruginosa; experiment: Potentiation of vancomycin-induced antibacterial activity against Pseudomonas aeruginosa assessed as fold reduction in vancomycin MIC at 50 uM after 12 to 24 hrs relative to vancomycin MIC alone; type: functional; conditions: time hrs 12-24
[35] = tested on: Pseudomonas aeruginosa; experiment: Antibacterial activity against Pseudomonas aeruginosa assessed as cell wall perturbation by XTT assay; type: functional, organism-based
[36] = tested on: Escherichia coli; experiment: Potentiation of vancomycin-induced antibacterial activity against Escherichia coli assessed as fold reduction in vancomycin MIC at 50 uM after 12 to 24 hrs relative to vancomycin MIC alone; type: functional; conditions: time hrs 12-24
[37] = tested on: Pseudomonas aeruginosa; experiment: Potentiation of amoxicillin-induced antibacterial activity against Pseudomonas aeruginosa assessed as amoxicillin MIC at 50 uM after 12 to 24 hrs (reference value: 2 microg/ml); type: functional; conditions: time hrs 12-24
[38] = tested on: Pseudomonas aeruginosa; experiment: Potentiation of amoxicillin-induced antibacterial activity against Pseudomonas aeruginosa assessed as fold reduction in amoxicillin MIC at 50 uM after 12 to 24 hrs relative to amoxicillin MIC alone; type: functional; conditions: time hrs 12-24
[39] = tested on: Pseudomonas aeruginosa; experiment: Antibacterial activity against Pseudomonas aeruginosa PAO1 assessed as growth inhibition by micro dilution assay; type: functional
[40] = tested on: Pseudomonas aeruginosa; experiment: Antibacterial activity against Pseudomonas aeruginosa GKCW120 harboring P6 deletion mutant assessed as growth inhibition incubated for 24 hrs by micro dilution assay; type: functional
[41] = tested on: Pseudomonas aeruginosa; experiment: Antibacterial activity against Pseudomonas aeruginosa GKCW120 harboring P6 deletion mutant assessed as growth inhibition incubated for 8 hrs by micro dilution assay; type: functional

- IC50 [2]: > 100 µg/mL
- MIC [2]: > 500 µM
- MIC [3]: 64 µg/mL
- MIC [7]: 128 µg/mL
- IC50 [8]: > 1000 µg/mL
- MIC [8]: > 5000 µM
- IC50 [10]: > 100 µg/mL
- MIC [10]: > 500 µM
- MIC [12]: 1 µg/mL
- MIC [13]: 0.5 µg/mL
- MIC [14]: 64 µg/mL
- MIC [15]: 0.5 µg/mL
- MIC [17]: 1 µg/mL
- MIC [18]: 64 µg/mL
- MIC [19]: 64 µg/mL
- MIC [20]: 4 µg/mL
- MIC [23]: 64 µg/mL
- MIC [24]: 64 µg/mL
- IC50 [26]: > 100 µg/mL
- MIC [26]: > 500 µM
- MIC [29]: 0.5 µg/mL
- MIC [30]: 128 µg/mL
- MIC [33]: 0.5 µg/mL
- MIC [37]: 2 µg/mL
SMILES: CCCc1c(O)cc(CC)oc1=O
- Ratio [1]: 1
- Ratio [4]: 1
- Ratio [5]: 1
- Ratio [6]: 1
- Ratio [9]: 1
- Ratio [11]: 1
- Ratio [16]: 1
- Ratio [21]: >1
- Ratio [22]: 1
- Ratio [25]: 1
- Ratio [27]: 1
- Ratio [28]: 1
- Ratio [31]: 1
- Activity [32]: inactive
- Ratio [34]: 1
- Activity [35]: inactive
- Ratio [36]: 1
- Ratio [38]: 1

- IC50 [2]: > 100 µg/mL
- MIC [2]: > 500 µM
- MIC [3]: 64 µg/mL
- MIC [7]: 0.5 µg/mL
- IC50 [8]: > 1000 µg/mL
- MIC [8]: > 5000 µM
- IC50 [10]: > 100 µg/mL
- MIC [10]: > 500 µM
- MIC [12]: 1 µg/mL
- MIC [13]: 0.5 µg/mL
- MIC [14]: 64 µg/mL
- MIC [15]: 0.5 µg/mL
- MIC [17]: 1 µg/mL
- MIC [18]: 64 µg/mL
- MIC [19]: 64 µg/mL
- MIC [20]: 4 µg/mL
- MIC [23]: 64 µg/mL
- MIC [24]: 64 µg/mL
- IC50 [26]: > 100 µg/mL
- MIC [26]: > 500 µM
- MIC [29]: 0.5 µg/mL
- MIC [30]: 128 µg/mL
- MIC [33]: 0.5 µg/mL
- MIC [37]: 2 µg/mL
SMILES: CCC(=O)c1c(O)cc(CC)oc1=O
- Ratio [1]: 1
- Ratio [4]: 1
- Ratio [5]: 1
- Ratio [6]: 1
- Ratio [9]: 1
- Ratio [11]: 1
- Ratio [16]: 1
- Ratio [21]: >256
- Ratio [22]: 1
- Ratio [25]: 1
- Ratio [27]: 1
- Ratio [28]: 1
- Ratio [31]: 1
- Activity [32]: inactive
- Ratio [34]: 1
- Activity [35]: inactive
- Ratio [36]: 1
- Ratio [38]: 1

SMILES: CC1(C)S[C@@H]2[C@H](NC(=O)Cc3ccccc3)C(=O)N2[C@H]1C(=O)O [PENICILLIN G]
- MIC [39]: > 128 µg/mL
- MIC [40]: > 128 µg/mL
- MIC [41]: 0.5 µg/mL (≈ 1.5 µM)
